Publication PMC6479946 (Molecules, 2019)

What was measured:
[1] = oral administration of 40.0 mg/kg HAR; cited from earlier work
in vivo = settings: rat plasma, n = 8, mean ± SD; for AUC(0-t) / AUC(0-inf) / CL/F / Cmax / k el / MRT / Tmax: male, Sprague-Dawley, rat, in vivo, po; for AUC(0-t): AUC(0-t) of HAR; for AUC(0-inf): AUC(0-∞) of HAR; for CL/F: CL/F of HAR; for Cmax: Cmax of HAR; for k el: Ke of HAR; for MRT: MRT of HAR; for Tmax: Tmax of HAR
Protocol: The analytes were separated on an ACQUITY UPLC BEH C18 column (2.1 mm × 50 mm, 1.7 μm, Waters, Milford, USA). […] The flow rate was 0.3 mL/min. The column and sample-tray temperature were kept at 40 °C and 4 °C, respectively. The injection volume was 5.0 μL using a partial loop with needle over fill mode.
The compound dependent parameters used for analysis were summarized in Supplementary materials Table S1.
A rapid and convenient precipitation method was used to prepare the plasma samples. A 100 μL aliquot of plasma sample was spiked with 100 μL of IS solution and 300 μL of methanol in a 1.5 mL centrifuge tube; subsequently, the mixtures were vortex-mixed for 30.0 s and then centrifuged at 1.5 × 10^4× g for 10 min at 4 °C. A 100 μL aliquot of supernatant was combined with 25.0 μL of 0.1% formic acid water in a clean centrifuge tube and then vortex-mixed for 30 s. A 5.0 μL aliquot of mixture was injected into the UPLC-MS/MS system for analysis.
Fifty-six pathogen-free male adult rats were randomly divided into seven groups with eight rats in each group for pharmacokinetic study. […] One group was intragastrically administered with MEM hydrochloride 5.0 mg/kg dissolved in ultrapure water, namely, MEM group. […] The blood samples were immediately centrifuged at 4.0 × 10^3× g at […] for 10 min, and 100 μL of the supernatant plasma was transferred into another new 1.5 mL centrifuge tube and stored at −20 °C until UPLC-MS/MS analysis.
All standard curves and quantitative data were processed by Agilent Mass Hunter Quantitative Analysis Workstation Software. […] All the pharmacokinetic parameters were processed using the non-compartmental pharmacokinetics data analysis software program PK solutions 2.0^TM (Summit Research Services, USA). […] The AUC(0-t) was obtained by the linear/logarithmic trapezoidal rule, and the area under the plasma concentration versus time curve from zero to infinity (AUC(0-∞)) was calculated by means of the trapezoidal rule with extrapolation to infinity with a terminal elimination rate constant. The Pearson correlation coefficient analysis was processed by IBM SPSS Statistics Version 21. A statistical analysis was performed using analysis of variance with α = 0.05 as the minimal level of significance.

[2] = 20 mg/kg, oral HAR 20.0 mg/kg + MEM 5.0 mg/kg (HAR-L + MEM)
[3] = 20 mg/kg, oral HAR 20.0 mg/kg alone (HAR-L)
[4] = 40 mg/kg, oral HAR 40.0 mg/kg + MEM 5.0 mg/kg (HAR-M + MEM)
[5] = 40 mg/kg, oral HAR 40.0 mg/kg alone (HAR-M)
[6] = 80 mg/kg, oral HAR 80.0 mg/kg + MEM 5.0 mg/kg (HAR-H + MEM)
[7] = 80 mg/kg, oral HAR 80.0 mg/kg alone (HAR-H)
[8] = oral HAR 20.0 mg/kg + MEM 5.0 mg/kg (HAR-L + MEM)
[9] = oral HAR 20.0 mg/kg alone (HAR-L)
[10] = oral HAR 40.0 mg/kg + MEM 5.0 mg/kg (HAR-M + MEM)
[11] = oral HAR 40.0 mg/kg alone (HAR-M)
[12] = oral HAR 80.0 mg/kg + MEM 5.0 mg/kg (HAR-H + MEM)
[13] = oral HAR 80.0 mg/kg alone (HAR-H)

## COc1ccc2c(c1)[nH]c1c(C)nccc12 [HAR, 7-methoxy-1-methyl-9H-pyrido [3,4-β] indole]
[1]
  maximum peak concentration (Cmax) of HAR: 67.1 ± 34.3 ng/mL
In vivo; [2]
  AUC(0-t): 141 ± 56.7 ng·h/mL
  AUC(0-inf): 158 ± 65.4 ng·h/mL
  CL/F: 158 L/h/kg
  Cmax: 64.5 ± 14.7 ng/mL
  k el: 8.67e-05 s⁻¹
  MRT: 4.02 ± 1.96 h
  Tmax: 0.5 ± 0.267 h
In vivo; [3]
  AUC(0-t): 74.9 ± 36.3 ng·h/mL
  AUC(0-inf): 83.1 ± 38.9 ng·h/mL
  CL/F: 323 L/h/kg
  Cmax: 31.4 ± 16.3 ng/mL
  k el: 0.000119 s⁻¹
  MRT: 3.36 ± 1.38 h
  Tmax: 0.5 ± 0.267 h
In vivo; [4]
  AUC(0-t): 139 ± 40.6 ng·h/mL
  AUC(0-inf): 153 ± 43.1 ng·h/mL
  CL/F: 278 L/h/kg
  Cmax: 86.6 ± 31 ng/mL
  k el: 4.83e-05 s⁻¹
  MRT: 3.28 ± 1.02 h
  Tmax: 0.24 ± 0.129 h
In vivo; [5]
  AUC(0-t): 100 ± 44.8 ng·h/mL
  AUC(0-inf): 109 ± 47.9 ng·h/mL
  CL/F: 431 L/h/kg
  Cmax: 77 ± 53.8 ng/mL
  k el: 0.000132 s⁻¹
  MRT: 2.83 ± 1.41 h
  Tmax: 0.365 ± 0.271 h
In vivo; [6]
  AUC(0-t): 1060 ± 540 ng·h/mL
  AUC(0-inf): 1110 ± 508 ng·h/mL
  CL/F: 91.2 L/h/kg
  Cmax: 755 ± 298 ng/mL
  k el: 0.000127 s⁻¹
  MRT: 2.88 ± 1.93 h
  Tmax: 0.448 ± 0.63 h
In vivo; [7]
  AUC(0-t): 502 ± 180 ng·h/mL
  AUC(0-inf): 587 ± 275 ng·h/mL
  CL/F: 163 L/h/kg
  Cmax: 368 ± 253 ng/mL
  k el: 0.000116 s⁻¹
  MRT: 3.17 ± 1.48 h
  Tmax: 0.344 ± 0.186 h
In vivo; [8]
  Ka of HAR: 1.91 ± 2.46 h⁻¹
  T1/2a of HAR: 1.57 ± 2.28 h
  T1/2e of HAR: 2.89 ± 2.26 h
  T1/2d of HAR: 1.22 ± 1.24 h
  Vd of HAR: 59.0 ± 35.1 (L/kg) × 10
In vivo; [9]
  Ka of HAR: 1.66 ± 2.27 h⁻¹
  T1/2a of HAR: 1.29 ± 1.25 h
  T1/2e of HAR: 2.05 ± 1.11 h
  T1/2d of HAR: 2.14 ± 2.57 h
  Vd of HAR: 80.3 ± 39.2 (L/kg) × 10
In vivo; [10]
  Ka of HAR: 1.52 ± 1.08 h⁻¹
  T1/2a of HAR: 1.18 ± 1.22 h
  T1/2e of HAR: 4.33 ± 1.31 h
  T1/2d of HAR: 2.33 ± 2.71 h
  Vd of HAR: 172 ± 61.6 (L/kg) × 10
In vivo; [11]
  Ka of HAR: 2.69 ± 2.60 h⁻¹
  T1/2a of HAR: 0.529 ± 0.478 h
  T1/2e of HAR: 2.28 ± 1.86 h
  T1/2d of HAR: 0.960 ± 0.734 h
  Vd of HAR: 136 ± 105 (L/kg) × 10
In vivo; [12]
  Ka of HAR: 2.93 ± 2.06 h⁻¹
  T1/2a of HAR: 0.357 ± 0.228 h
  T1/2e of HAR: 3.21 ± 3.17 h
  T1/2d of HAR: 1.40 ± 1.74 h
  Vd of HAR: 60.3 ± 89.6 (L/kg) × 10
In vivo; [13]
  Ka of HAR: 2.80 ± 2.74 h⁻¹
  T1/2a of HAR: 0.605 ± 0.546 h
  T1/2e of HAR: 2.35 ± 1.44 h
  T1/2d of HAR: 1.36 ± 1.37 h
  Vd of HAR: 51.4 ± 33.1 (L/kg) × 10
